Assay results from PMC6254154 (Molecules, 2009).

Key:
PLA2 of CR venom = test: Inhibition of PLA2 activity of CR venom (indirect hemolytic assay on agarose-erythrocyte-egg yolk gel plates); type: biochemical, Calloselasma rhodostoma; conditions: CR venom 17.1 µg (one MIHD); pre-incubated 1 h at 37 °C; mean ± S.E.M. (n = 2)
Method: (§1) PLA2 activity in CR and NK venoms was measured using an indirect hemolytic assay on agarose-erythrocyte-egg yolk gel plates to define the minimum indirect hemolytic dose (MIHD), the dose of venom that induced a hemolysis halo of 20 mm diameter after incubation for 20 h at 37 °C. The inhibition of PLA2 activity by MSKE and its isolated phenolic principles was determined against one MIHD of CR and NK venoms. Test solutions and the venoms (0.05 mL each) were pre-incubated for 1 h at 37 °C. After centrifugation at 10,000 rpm for 10 min, the supernatant (20 µL) was tested for PLA2 activity. The anti-PLA2 potential of the extract and its phenolic principles was presented as percent inhibition of the enzymatic activity versus dose, in which 100% inhibition should produce no clear zone. ED50, the effective dose that PLA2 activity of the venoms was reduced by 50%, was calculated.

PLA2 of NK venom = test: Inhibition of PLA2 activity of NK venom (indirect hemolytic assay on agarose-erythrocyte-egg yolk gel plates); type: biochemical, Naja naja kaouthia; conditions: NK venom 3.4 µg (one MIHD); pre-incubated 1 h at 37 °C; mean ± S.E.M. (n = 2)
Method: as §1

[1] = tested on: hyaluronidase of CR venom; test: Inhibition of hyaluronidase activity of CR venom (turbidimetric); type: biochemical, Calloselasma rhodostoma; conditions: CR venom 250 µg; pre-incubated 30 min at 37 °C; mean ± S.E.M. (n = 2)
Method: (§2) Hyaluronidase activity was determined according to the methods of Ferrante and Yingprasertchai et al. with slight modification. CR or NK venom (25-1,000 µg) in PBS (pH 7.4) was incubated with hyaluronic acid (50 μg) in 0.2 M sodium acetate buffer (1 mL, pH 5) that contained 0.15 M NaCl for 25 min at 37 °C. The reaction was stopped by adding 2.5% cetyltrimethylammonium bromide in 2% NaOH (2 mL). The optical density at 400 nm of each sample was read after 30 min with a Shimadzu UV-VIS spectrophotometer UV-160A against blank. Turbidity-reducing activity was expressed as the percentage of the remaining hyaluronic acid, taking the absorbance of a tube to which no enzyme was added as 100%. The venom concentration that produced a reduction in turbidity of ~50% was used in inhibition experiments. […] Blanks containing only the buffer and test sample were run in parallel. The anti-hyaluronidase potential of the extract and its phenolic principles was presented as percent inhibition of the enzymatic activity versus dose. ED50, the effective dose that hyaluronidase activity of the venoms was reduced by 50%, was calculated.

[2] = tested on: hyaluronidase of NK venom; test: Inhibition of hyaluronidase activity of NK venom (turbidimetric); type: biochemical, Naja naja kaouthia; conditions: NK venom 250 µg; pre-incubated 30 min at 37 °C; mean ± S.E.M. (n = 2)
Method: as §2

LAAO of CR venom = biological target: T1, LAAO of CR venom (Calloselasma rhodostoma, UniProt P81382); test: Inhibition of LAAO activity of CR venom (enzyme-coupled assay); type: biochemical; conditions: CR venom 50 µg; pre-incubated 1 h at 37 °C; mean ± S.E.M. (n = 2)
T1 construct: from tissue; host or cells: crude snake venom (CR)
Method: (§3) LAAO activity of CR and NK venoms was determined by using an enzyme-coupled assay. The assay mixture contained 0.025 mL 0.014% peroxidase and 0.2 M triethanolamine buffer (1 mL, pH 7.6) that contained 0.1% L-leucine and 0.0065% o-dianisidine. After incubation at 25 °C for 3 min, 0.1 mL CR or NK venom in PBS (1 mg/mL) was added, and an increase in absorbance at 436 nm (Shimadzu UV-VIS spectrophotometer UV-160A) was measured against blank. Enzymatic activity was calculated from the linear portion of the time–absorbance plot, where one unit of enzymatic activity was defined as the amount of enzyme that caused an increase of 0.001 absorbance units per minute. The percent inhibition of LAAO activity by MSKE and its isolated phenolic principles was evaluated by pre-incubating CR or NK venom (0.1 mL, 1 mg/mL) with test sample in sterile water for injection (SWI) (0.1 mL) for 1 h at 37 °C. After pre-incubation, the mixture was centrifuged at 10,000 rpm for 5 min, and supernatant (0.1 mL) was evaluated for LAAO activity. Venoms, test sample, and solvents alone were used as controls. The anti-LAAO potential of the extract and its phenolic principles was presented as percent inhibition of the enzymatic activity versus dose. ED50, the effective dose that LAAO activity of the venoms was reduced by 50%, was calculated.

LAAO of NK venom = test: Inhibition of LAAO activity of NK venom (enzyme-coupled assay); type: biochemical, Naja naja kaouthia; conditions: NK venom 50 µg; pre-incubated 1 h at 37 °C; mean ± S.E.M. (n = 2)
Method: as §3

T1 sequence (P81382 19-516): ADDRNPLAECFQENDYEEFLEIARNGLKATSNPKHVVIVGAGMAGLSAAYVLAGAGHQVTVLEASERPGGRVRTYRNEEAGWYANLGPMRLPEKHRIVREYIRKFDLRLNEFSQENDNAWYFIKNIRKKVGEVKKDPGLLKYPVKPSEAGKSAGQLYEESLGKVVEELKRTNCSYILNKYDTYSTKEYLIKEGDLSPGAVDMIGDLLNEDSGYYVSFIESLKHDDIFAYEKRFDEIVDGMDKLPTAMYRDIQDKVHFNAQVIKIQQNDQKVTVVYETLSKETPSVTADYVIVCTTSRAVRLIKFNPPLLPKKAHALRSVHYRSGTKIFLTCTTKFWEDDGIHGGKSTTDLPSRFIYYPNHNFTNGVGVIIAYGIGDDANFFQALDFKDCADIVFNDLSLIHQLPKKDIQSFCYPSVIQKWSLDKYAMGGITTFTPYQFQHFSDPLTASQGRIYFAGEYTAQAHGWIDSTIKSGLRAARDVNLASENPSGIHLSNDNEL

| Structure (SMILES) | PLA2 (ED50, µg) CR venom (PLA2 of CR venom) [µg] | PLA2 (ED50, µg) NK venom (PLA2 of NK venom) [µg] | Hyaluronidase (ED50, µg) CR venom [1] [µg] | Hyaluronidase (ED50, µg) NK venom [2] [µg] | LAAO (ED50, µg) CR venom (LAAO of CR venom) [µg] | LAAO (ED50, µg) NK venom (LAAO of NK venom) [µg] |
| --- | --- | --- | --- | --- | --- | --- |
| O=C(O)c1cc(O)c(O)c(O)c1 [GA, gallic acid] | 66.0 ± 2.5 | 123.5 ± 2.5 | 16.0 ± 2.5 | 14.8 ± 1.4 | 1.7 ± 3.4 | 4.5 ± 2.8 |
| COC(=O)c1cc(O)c(O)c(O)c1 [MG, methyl gallate] | 42.9 ± 2.3 | 108.7 ± 2.0 | 5.9 ± 2.4 | 8.6 ± 2.1 | 2.3 ± 2.4 | 4.4 ± 2.0 |
| O=C(OC[C@H]1O[C@@H](OC(=O)c2cc(O)c(O)c(O)c2)[C@H](OC(=O)c2cc(O)c(O)c(O)c2)[C@@H](OC(=O)c2cc(O)c(O)c(O)c2)[C@@H]1OC(=O)c1cc(O)c(O)c(O)c1)c1cc(O)c(O)c(O)c1 [PGG, 1,2,3,4,6-penta-O-galloyl-β-D-glucopyranose] | 25.6 ± 1.3 | 30.2 ± 2.4 | 3.4 ± 2.4 | 2.6 ± 1.7 | 0.9 ± 2.4 | 2.2 ± 2.0 |
